These are literature values, as cited in PubChem BioAssay AID1259409 (Chemical Carcinogenesis Research Information System (CCRIS), 2018).

The subject of this data set is rodent chemically induced tumor inhibition, incidence and multiplicity. Kind of data set: CCRIS tumor inhibitor studies. To be noted: Carcinogen: DIETHYLNITROSAMINE, 55-18-5, N-METHYLNITROSOUREA, 684-93-5, 1,2-DIMETHYLHYDRAZINE, 540-73-8, N-BUTYL-N-(4-HYDROXYB, Carcinogen: DIETHYLNITROSAMINE, 55-18-5, N-METHYLNITROSOUREA, 684-93-5, 1,2-DIMETHYLHYDRAZINE, 540-73-8, N-BUTYL-N-(4-HYDROXYB, Dose [Inhibitor]: 0, Route [Inhibitor]: ORAL, Species: RAT, Strain/Sex: F344/MALE, Dose [Carcinogen]: 100 MG/KG DEN ONCE, 20 MG/KG MNU 4 TIMES, 40 MG/KG DMH 4 TIMES, 0.05% BBN IN DRINKING WATER FOR 2 WK, 0.1% DHPN IN D, Dose [Carcinogen]: 100 MG/KG DEN ONCE, 20 MG/KG MNU 4 TIMES, 40 MG/KG DMH 4 TIMES, 0.05% BBN IN DRINKING WATER FOR 2 WK, 0.1% DHPN IN D, Promoter: NONE USED.

As to `O=c1c(O)c(-c2ccc(O)c(O)c2)oc2cc(O)cc(O)c12`, the “tumour outcome (control, treated, inhibition, significance)” value by setting is: (1% IN DIET FOR 4 WK BEGINNING 1 DAY PRIOR TO CARCINOGEN TREATMENT (STUDY DURATION: 36 WK), Target Tissue: Type of Lesion: LUNG: ADENOMA) 6/14 (43%), 2/13 (15%), 65%, not significant; (1% IN DIET FOR 4 WK BEGINNING 1 DAY PRIOR TO CARCINOGEN TREATMENT (STUDY DURATION: 36 WK), Target Tissue: Type of Lesion: SMALL INTESTINE: ADENOMA) 6/14 (43%), 1/13 (8%), 81%, p<0.05; (1% IN DIET FOR 4 WK BEGINNING 1 DAY PRIOR TO CARCINOGEN TREATMENT (STUDY DURATION: 36 WK), Target Tissue: Type of Lesion: SMALL INTESTINE: CARCINOMA) 5/14 (36%), 2/13 (15%), 58%, not significant; (1% IN DIET FOR 32 WK BEGINNING POST CARCINOGEN TREATMENT (STUDY DURATION: 36 WK), Target Tissue: Type of Lesion: KIDNEY: ADENOMA) 4/14 (29%), 3/12 (25%), 14%, not significant; (1% IN DIET FOR 32 WK BEGINNING POST CARCINOGEN TREATMENT (STUDY DURATION: 36 WK), Target Tissue: Type of Lesion: KIDNEY: NEPHROBLASTOMA) 7/14 (50%), 4/12 (33%), 34%, not significant; (1% IN DIET FOR 32 WK BEGINNING POST CARCINOGEN TREATMENT (STUDY DURATION: 36 WK), Target Tissue: Type of Lesion: LARGE INTESTINE: CARCINOMA) 3/14 (21%), 4/12 (33%), -57%, not significant.
